Data from US10344025B2, “GLS1 inhibitors for treating disease” (Board of Regents, The University of Texas System, priority 2014, dated 2019).
Several values for one entry are separate records, joined by “and”; a condition that tells them apart may be missing. Equal values may be shown once.

Key:
[1] = target: purified recombinant human GAC (GLS1) (Homo sapiens (Human), UniProt O94925); test: GLS1 Enzymatic Activity Assay (dual-coupled enzymatic assay, resorufin/Amplex UltraRed readout); format: biochemical;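 also: glutamate from GAC coupled via glutamate oxidase and peroxidase to resorufin, read as fluorescence (ex 530, em 590 nm) kinetically or at 20 min, four-parameter logistic IC50 fit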
Chain of purified recombinant human GAC (GLS1) (O94925 other isoform, or with tags, fused parts or gaps): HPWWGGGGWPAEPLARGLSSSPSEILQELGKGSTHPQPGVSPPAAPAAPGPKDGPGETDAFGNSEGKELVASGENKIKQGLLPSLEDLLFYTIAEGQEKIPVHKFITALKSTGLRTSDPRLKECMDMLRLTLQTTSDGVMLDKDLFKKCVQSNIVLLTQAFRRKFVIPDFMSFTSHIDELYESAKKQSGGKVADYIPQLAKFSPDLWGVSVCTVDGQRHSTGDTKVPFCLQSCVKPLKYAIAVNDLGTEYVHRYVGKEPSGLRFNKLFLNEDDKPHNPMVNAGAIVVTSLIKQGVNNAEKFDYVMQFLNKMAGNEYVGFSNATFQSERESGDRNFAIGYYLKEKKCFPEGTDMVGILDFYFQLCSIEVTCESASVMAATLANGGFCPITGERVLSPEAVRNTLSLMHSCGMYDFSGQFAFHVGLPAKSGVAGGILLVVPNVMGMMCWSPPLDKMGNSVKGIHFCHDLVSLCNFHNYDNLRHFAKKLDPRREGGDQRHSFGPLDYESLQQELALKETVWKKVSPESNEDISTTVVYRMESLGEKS

A549 cells = test: Proliferation Assay (A549 viability, Cell Titer Fluor, 72 hours); format: cell-based; conditions: Homo sapiens, A549, 72 h
Experimental: A549 cells were routinely maintained in RPMI 1640 media (Gibco catalog number 11875-093) supplemented with 10% dialyzed fetal bovine serum using a humidified incubator (37° C., 5% CO2 and ambient O2). In preparation for the viability assay, cells were inoculated into 384-well black CulturPlates (Perkin Elmer) at a density of 1000 cells/well in a volume of 40 uL. Following a 24-hour incubation at 37° C., 5% CO2 and ambient O2, cells were treated with compound (10 uL) in a final DMSO concentration of 0.5% (v/v). The microplates were then incubated for 72 hours (37° C., 5% CO2 and ambient O2). Cell Titer Fluor (Promega) was subsequently added (10 uL of 6× reagent) and mixed for 15 minutes at room temperature. The plates were then incubated for 30 minutes (37° C., 5% CO2 and ambient O2) and fluorescence was subsequently read on the Perkin Elmer Envision plate reader. IC50 values were calculated using a four-parameter logistic curve fit.
Non-limiting examples include the following compounds and pharmaceutically acceptable salts thereof. […] “ND” indicates no data.

| IC50 [1] | EC50 (A549 cells) [µM] | Structure (SMILES) |
| --- | --- | --- |
| < 0.1 µM | < 0.1 | O=C(Cc1cccc(OC(F)(F)F)c1)Nc1nnc(CCCCn2cc(C(=O)NCc3ccccc3)nn2)s1 [Example 16, N-benzyl-[4-(5-{2-[3-(trifluoromethoxy)phenyl]acetamido}-1,3,4-thiadiazol-2-yl)butyl]-1H-1,2,3-triazole-4-carboxamide] |
| 0.1 to 0.5 µM | 0.1 to 0.5 | O=C(Cc1cccc(OC(F)(F)F)c1)Nc1nnc(CCCCn2cc(C(=O)NCCO)nn2)s1 [Example 17, N-(2-hydroxyethyl)-1-[4-(5-{2-[3-(trifluoromethoxy)phenyl]acetamido}-1,3,4-thiadiazol-2-yl)butyl]-1H-1,2,3-triazole-4-carboxamide] |
| 0.1 to 0.5 µM | 0.1 to 0.5 | CC(C)(NC(=O)c1cn(CCCCc2nnc(NC(=O)Cc3cccc(OC(F)(F)F)c3)s2)nn1)c1ccccc1 [Example 18, N-(2-phenylpropan-2-yl)-1-[4-(5-{2-[3-(trifluoromethoxy)phenyl]acetamido}-1,3,4-thiadiazol-2-yl)butyl]-1H-1,2,3-triazole-4-carboxamide] |
| < 0.1 µM | < 0.1 | O=C(Cc1cccc(OC(F)(F)F)c1)Nc1nnc(CCCCn2cc(C(=O)NCc3ccccn3)nn2)s1 [Example 19, N-(pyridin-2-ylmethyl)-1-[4-(5-{2-[3-(trifluoromethoxy)phenyl]acetamido}-1,3,4-thiadiazol-2-yl)butyl]-1H-1,2,3-triazole-4-carboxamide] |
| < 0.1 µM | < 0.1 | O=C(Cc1cccc(OC(F)(F)F)c1)Nc1nnc(CCCCn2cc(C(=O)NCc3cccc(OC(F)(F)F)c3)nn2)s1 [Example 20, 1-[4-(5-{2-[3-(trifluoromethoxy)phenyl]acetamido}-1,3,4-thiadiazol-2-yl)butyl}-N-{[3-(trifluoromethoxy)phenyl]methyl}-1H-1,2,3-triazole-4-carboxamide] |
| < 0.1 µM | 0.1 to 0.5 | O=C(Cc1cccc(OC(F)(F)F)c1)Nc1nnc(CCCCn2cc(C(=O)N[C@@H](CO)c3ccccc3)nn2)s1 [Example 21, N-[(1R)-2-hydroxy-1-phenylethyl]-1-[4-(5-{2-[3-(trifluoromethoxy)phenyl]acetamido}-1,3,4-thiadiazol-2-yl)butyl]-1H-1,2,3-triazole-4-carboxamide] |
| < 0.1 µM | 0.1 to 0.5 | COc1ccc(CNC(=O)c2cn(CCCCc3nnc(NC(=O)Cc4cccc(OC(F)(F)F)c4)s3)nn2)c(OC)c1 [Example 22, N-[(2,4-dimethoxyphenyl)methyl]-1-[4-(5-{2-[3-(trifluoromethoxy)phenyl]acetamido}-1,3,4-thiadiazol-2-yl)butyl]-1H-1,2,3-triazole-4-carboxamide] |
| < 0.1 µM | 0.1 to 0.5 | O=C(Cc1cccc(OC(F)(F)F)c1)Nc1nnc(CCCCn2cc(C(=O)N[C@H](CO)c3ccccc3)nn2)s1 [Example 23, N-[(1S)-2-hydroxy-1-phenylethyl]-1-[4-(5-{2-[3-(trifluoromethoxy)phenyl]acetamido}-1,3,4-thiadiazol-2-yl)butyl]-1H-1,2,3-triazole-4-carboxamide] |
| < 0.1 µM | < 0.1 | CC(C)CNC(=O)c1cn(CCCCc2ccc(NC(=O)Cc3ccccc3)nn2)nn1 [Example 24, N-(2-methylpropyl)-1-{4-[6-(2-phenylacetamido)pyridazin-3-yl]butyl}-1H-1,2,3-triazole-4-carboxamide] |
| < 0.1 µM | 0.1 to 0.5 | O=C(NCCc1ccccc1)c1nnc(CCCCc2ccc(NC(=O)[C@@H](O)c3ccccc3)nn2)s1 [Example 25, 5-(4-{6-[(2S)-2-hydroxy-2-phenylacetamido]pyridazin-3-yl}butyl)-N-(2-phenylethyl)-1,3,4-thiadiazole-2-carboxamide] |
| < 0.1 µM | < 0.1 | O=C(Cc1ccccc1)Nc1ccc(CCCCc2nnc(C(=O)NCCc3ccccc3)s2)nn1 [Example 26, 5-{4-[6-(2-phenylacetamido)pyridazin-3-yl]butyl}-N-(2-phenylethyl)-1,3,4-thiadiazole-2-carboxamide] |
| < 0.1 µM | < 0.1 | O=C(Cc1cccnc1)Nc1ccc(CCCCc2nnc(C(=O)NCCc3ccccc3)s2)nn1 [Example 27] |
| < 0.1 µM | 0.1 to 0.5 | O=C(Cc1ccccc1)Nc1ccc(CCCCc2nnc(C(=O)NCc3ccccc3)s2)nn1 [Example 28, N-benzyl-5-{4-[6-(2-phenylacetamido)pyridazin-3-yl]butyl}-1,3,4-thiadiazole-2-carboxamide] |
| < 0.1 µM | < 0.1 | O=C(NCc1ccccc1)c1nnc(CCCCc2ccc(NC(=O)[C@@H](O)c3ccccc3)nn2)s1 [Example 29, N-benzyl-5-(4-{6-[(2S)-2-hydroxy-2-phenylacetamido]pyridazin-3-yl}butyl)-1,3,4-thiadiazole-2-carboxamide] |
| < 0.1 µM | < 0.1 | O=C(Cc1cccnc1)Nc1ccc(CCCCc2nnc(C(=O)NCc3ccccc3)s2)nn1 [Example 30, N-benzyl-5-(4-{6-[2-(pyridin-3-yl)acetamido]pyridazin-3-yl}butyl)-1,3,4-thiadiazole-2-carboxamide] |
| < 0.1 µM | < 0.1 | CC(C)CNC(=O)c1nnc(CCCCc2ccc(NC(=O)Cc3cccc(OC(F)(F)F)c3)nn2)s1 [Example 31, N-(2-methylpropyl)-5-[4-(6-{2-[3-(trifluoromethoxy)phenyl]acetamido}pyridazin-3-yl)butyl]-1,3,4-thiadiazole-2-carboxamide] |
| < 0.1 µM | < 0.1 | O=C(Cc1cccc(OC(F)(F)F)c1)Nc1ccc(CCCCc2nnc(C(=O)NCc3ccccn3)s2)nn1 [Example 32, N-(pyridin-2-ylmethyl)-5-[4-(6-{2-[3-(trifluoromethoxy)phenyl]acetamido}pyridazin-3-yl)butyl]-1,3,4-thiadiazole-2-carboxamide] |
| < 0.1 µM | < 0.1 | O=C(Cc1cccc(OC(F)(F)F)c1)Nc1ccc(CCCCc2nnc(C(=O)NCC3COC3)s2)nn1 [Example 33, N-(oxetan-3-ylmethyl)-5-[4-(6-{2-[3-(trifluoromethoxy)phenyl]acetamido}pyridazin-3-yl)butyl]-1,3,4-thiadiazole-2-carboxamide] |
| < 0.1 µM and 0.1 to 0.5 µM | 0.1 to 0.5 | CC(C)(O)CNC(=O)c1nnc(CCCCc2ccc(NC(=O)Cc3cccc(OC(F)(F)F)c3)nn2)s1 [Example 34, N-(2-hydroxy-2-methylpropyl)-5-[4-(6-{2-[3-(trifluoromethoxy)phenyl]acetamido}pyridazin-3-yl)butyl]-1,3,4-thiadiazole-2-carboxamide] |
| < 0.1 µM | < 0.1 | O=C(Cc1cccc(OC(F)(F)F)c1)Nc1ccc(CCCCc2nnc(C(=O)NCc3ccccc3)s2)nn1 [Example 36, N-benzyl-5-[4-(6-{2-[3-(trifluoromethoxy)phenyl]acetamido}pyridazin-3-yl)butyl]-1,3,4-thiadiazole-2-carboxamide] |
| < 0.1 µM | < 0.1 | O=C(Cc1cccc(OC(F)(F)F)c1)Nc1ccc(CCCCc2nnc(C(=O)NCCO)s2)nn1 [Example 37, N-(2-hydroxyethyl)-5-[4-(6-{2-[3-(trifluoromethoxy)phenyl]acetamido}pyridazin-3-yl)butyl]-1,3,4-thiadiazole-2-carboxamide] |
| 0.5 to 5 µM | 0.5 to 5 | O=C(NCc1ccccc1)c1cn(CCCCc2nnc(C(=O)NCCO)s2)nn1 [Example 41, 5-{4-[4-(benzylcarbamoyl)-1H-1,2,3-triazol-1-yl]butyl}-N-(2-hydroxyethyl)-1,3,4-thiadiazole-2-carboxamide] |
